Entries after “also recorded” stand apart in the source; their conditions may differ. Where two headings read alike, the source gives them in different places.

One series is described as follows: in vivo. In kind it is in vivo. Particulars: male ICR mice, n = 4; for AUClast, brain: brain homogenate; for AUClast, heart: heart homogenate; for AUClast, kidney: kidney homogenate; for AUClast, liver: liver homogenate; for AUClast, lung: lung homogenate; for AUClast, spleen: spleen homogenate; for AUC(0-t): mouse, in vivo, plasma, read-out: AUClast, plasma (converted). The protocol: Male mice fasted for 12 h with free access to water. Blood, brain, liver, kidney, heart, lung, stomach, intestine, and spleen were collected at 0.5, 1, 2, and 4 h after iv (0.8 mg/kg) injection or at 0.5, 1, 3, and 6 h after oral (10 mg/kg) administration of β-amanitin (n = 4 at each time point). Plasma samples (5 μL each) were harvested by centrifugation at 13,000× g for 3 min at 4 °C. Tissue samples were washed with cold normal saline, weighed, and stored at −80 °C until analysis.
Concentrations of β-amanitin in biological samples were evaluated following our previous methodology. The standard calibration curves for β-amanitin in mouse plasma ranged from 0.5 to 500 ng/mL and were linear, with a correlation coefficient of 0.9952. The inter- and intra-day accuracy and precision fell within the acceptance criteria (3.1–14.6% of coefficients of variation (CVs) and 92.5–115.0% of accuracy). The extraction recovery and matrix effect of this analytical method were 82.8–88.9% and 93.0–98.6%.
Each tissue and feces sample was homogenized in water (1:3, w/v). In total, 50 μL aliquots of urine, tissue homogenates, or feces homogenates were mixed with 150 μL of 4′-hydroxydiclofenac solution (IS, 5 ng/mL in methanol). The other steps were as described for plasma sample preparation.
Toxicokinetics of β-Amanitin in Mice and In Vitro Drug–Drug
Young Yoon Bang, Im-Sook Song, Min Seo Lee, Chang Ho Lim, Yong-Yeon Cho, Joo Young Lee, Han Chang Kang […]
1. Liquid chromatography-high resolution mass spectrometry (LC-HRMS) of β-amani-tin in various tissue samples
Blood, brain, liver, kidney, heart, lung, stomach, intestine, and spleen tissues were collected, washed with cold normal saline, and weighted. Tissue samples were homoge-nized in water (1:3, w/v) and 50 μL aliquots of tissue homogenates were mixed with 150 μL of 4’-hydroxydiclofenac solution (IS, 5 ng/mL in methanol) and vortexed for 2 min. The mixture was centrifuged at 13,000 rpm at 4 °C for 5 min, and the supernatant was then transferred to an autosampler vial. An aliquot (5 μL) was injected into the LC-HRMS sys-tem for analysis, according to the previous methods. The standard calibration curves for β-amanitin in various tissue homogenates were prepared individually using the re-spective blank tissue homogenates. Each calibration standard curve was validated using the quality control (QC) samples.
As results, the standard calibration curves for β-amanitin in various tissue homoge- […]
the quality control samples prepared in various tissue homogenates were all in acceptance criteria (Supplementary Table 1).
Table S1. Concentration ranges, representative regression equation, and correlation coefficients of the calibration curves and precision (coefficient of variation, CV) and accuracy values for β-amanitin […]
Tissue Concentration Representative regression Correlation range (ng/g tissue) equation coefficient QC (ng/g tissue) Intra-day (n = 5) Accuracy (%) CV (%) […]

The target in the next series is T1, OAT3 (Homo sapiens, UniProt Q8TCC7).
T1 sequence (Q8TCC7 1-542): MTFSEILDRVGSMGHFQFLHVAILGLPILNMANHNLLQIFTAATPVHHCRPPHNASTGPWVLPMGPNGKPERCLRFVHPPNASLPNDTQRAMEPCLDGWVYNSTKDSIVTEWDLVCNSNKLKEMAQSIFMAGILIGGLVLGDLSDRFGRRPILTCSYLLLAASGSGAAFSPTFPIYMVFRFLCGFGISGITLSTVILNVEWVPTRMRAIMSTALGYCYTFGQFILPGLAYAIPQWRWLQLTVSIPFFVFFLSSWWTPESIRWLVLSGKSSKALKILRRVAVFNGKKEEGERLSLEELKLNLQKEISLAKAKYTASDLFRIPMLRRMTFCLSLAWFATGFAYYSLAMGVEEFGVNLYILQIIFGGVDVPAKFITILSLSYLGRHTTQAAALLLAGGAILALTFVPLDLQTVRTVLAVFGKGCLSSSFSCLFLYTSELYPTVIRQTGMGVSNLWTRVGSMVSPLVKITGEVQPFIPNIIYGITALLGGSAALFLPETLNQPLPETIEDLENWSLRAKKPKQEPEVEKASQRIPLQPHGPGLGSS
Kind of series: Uptake of amanitins into HEK293-OAT3 cells. Particulars: 50 μM amanitin, 5 min, 37 °C, HBSS, 20 min preincubation, with and without probenecid, LC-HRMS, n = 3. In kind it is in vitro ADME. Further details: expressed in transfected cells; host or cells: HEK293. On the procedure: HEK293 cells overexpressing OCT2, MATE2-K, OAT1, OAT3, OATP1B1, and OATP1B3 transporters and HEK293-control cells were maintained in a humidified atmosphere of 5% CO2 at 37 °C in DMEM supplemented with 10% FBS and 5 mM non-essential amino acids. In the case of HEK293-OATP1B1, -OATP1B3, and MATE2-K cells, 2 mM sodium butyrate was added to the culture medium to enhance transport activity. Cells were seeded at 2 × 10^5 cells/well in poly-D-lysine-coated 24-well plates. After 24 h, the growth medium was discarded, and attached cells were washed with HBSS and preincubated for 20 min in HBSS at 37 °C. Stock solutions of α- and β-amanitin and representative inhibitors of transporters were diluted in HBSS to make the final concentration: cimetidine 1 mM (for OCT2), cimetidine 100 μM (for MATE2-K), probenecid 100 μM (for OAT1 and OAT3), and rifampin 100 μM (for OATP1B1 and OATP1B3). Uptake of 50 μM α- and β-amanitin was measured in the absence and presence of representative inhibitors for 5 min at 37 °C. Plates were placed immediately on ice, and cells were then washed twice with 1 mL of ice-cold HBSS. Residual HBSS was removed thoroughly from the plates. Subsequently, 150 μL of 80% methanol containing IS was added to each sample well, and the cell plates were shaken gently for 20 min at 4 °C. The remaining steps were the same as described for plasma sample preparation.

Where [1] appears, read: iv 0.8 mg/kg, sampled 0.5, 1, 2, 4 h, LC-HRMS, mean ± SD.
Setting [2] is: po 10 mg/kg, sampled 0.5, 1, 3, 6 h, LC-HRMS, mean ± SD.

On to `CC[C@H](C)[C@@H]1NC(=O)CNC(=O)[C@@H]2Cc3c([nH]c4cc(O)ccc34)[S@+]([O-])C[C@H](NC(=O)CNC1=O)C(=O)N[C@@H](CC(=O)O)C(=O)N1C[C@H](O)C[C@H]1C(=O)N[C@@H]([C@@H](C)[C@@H](O)CO)C(=O)N2` [β-amanitin], for which the “AUClast, brain” value in “in vivo” (iv 0.8 mg/kg, sampled 0.5, 1, 2, 4 h, LC-HRMS) is given as “-”. Also, in “in vivo” (setting [1]), the “AUClast, heart” value was 13,397 ± 908 ng⋅min/g; the “AUClast, kidney” value was 142,023 ± 7510 ng⋅min/g; the “AUClast, liver” value is 25,780 ± 2440 ng⋅min/g; the “AUClast, lung” value is 35,970 ± 3070 ng⋅min/g. For the same compound, in “in vivo” (setting [1]), the “AUClast, spleen” value is on record as 137,855 ± 11,949 ng⋅min/g and the AUC(0-t) is 910 ng·h/mL. Also, in the series “in vivo” (iv 0.8 mg/kg), the “Tissue to plasma (AUC) ratio, heart” value came to 0.2; the “Tissue to plasma (AUC) ratio, liver” value was 0.5; the “Tissue to plasma (AUC) ratio, lung” value amounted to 0.7. For the same compound, in the series “in vivo” (iv 0.8 mg/kg, 0.8 mg/kg), the “Tissue to plasma (AUC) ratio, kidney” value came to 2.6 and the “Tissue to plasma (AUC) ratio, spleen” value stood at 2.5. In addition, in the series “in vivo” (po 10 mg/kg, sampled 0.5, 1, 3, 6 h, LC-HRMS), the “AUClast, brain” value is listed as “-”. Further, in the series “in vivo” (setting [2]), the “AUClast, heart” value was 12,563 ± 2696 ng⋅min/g; the “AUClast, kidney” value was 158,677 ± 84,620 ng⋅min/g; the “AUClast, liver” value is 12,665 ± 11,731 ng⋅min/g; the “AUClast, lung” value was 37,831 ± 11,434 ng⋅min/g. For the same compound, in “in vivo” (setting [2]), the “AUClast, spleen” value is given as 42,409 ± 33,867 ng⋅min/g and the AUC(0-t) is 394 ng·h/mL. In addition, in the series “in vivo” (po 10 mg/kg, intestine homogenate, sampled 0.5, 1, 3, 6 h, LC-HRMS, mean ± SD), the “AUClast, intestine” value is 2,066,298 ± 492,689 ng⋅min/g. In “in vivo” (po 10 mg/kg), the “Tissue to plasma (AUC) ratio, heart” value is given as 0.5; the “Tissue to plasma (AUC) ratio, intestine” value is listed as 87.3; the “Tissue to plasma (AUC) ratio, liver” value worked out at 0.5; the “Tissue to plasma (AUC) ratio, lung” value is reported as 1.6. In addition, in “in vivo” (po 10 mg/kg), the “Tissue to plasma (AUC) ratio, spleen” value was determined as 1.8 and the “Tissue to plasma (AUC) ratio, stomach” value amounted to 28.8. For the same compound, the “AUClast, stomach” value in the series “in vivo” (po 10 mg/kg, stomach homogenate, sampled 0.5, 1, 3, 6 h, LC-HRMS, mean ± SD) is on record as 680,749 ± 137,691 ng⋅min/g. For the same compound, the “Uptake into HEK293-OAT3 cells compared with HEK293 control cells (transport substrate)” value at OAT3 is “significantly greater uptake; also recorded: substrate”.

Take α-amanitin [reference compound]: on OAT3, the “Uptake into HEK293-OAT3 cells compared with HEK293 control cells (transport substrate)” value was “but not α-amanitin, showed significantly greater uptake”.

Values taken from publication PMC9030691, “Toxicokinetics of β-Amanitin in Mice and In Vitro Drug–Drug Interaction Potential” (Pharmaceutics, 2022).
